The values below come from ChEMBL document CHEMBL5649166, “RIP3 induces apoptosis independent of pronecrotic kinase activity” (Mol Cell, 2014).

The subject of data set [1] is 3T3SA. The experiment in a line: Cytotoxicity against mouse 3T3SA cells assessed as induction of apoptosis at 10 uM incubated for 18 hrs in presence of zVAD by Cell Titer-Glo luminescent cell viability assay. It counts as toxicity, cell-based. (Cellular ATP, detected with luciferase, serves as a proxy for viable cell number.)
For data set [2], the target named is Serine/threonine-protein kinase mTOR (Homo sapiens) (UniProt P42345). The experiment in a line: Inhibition of human mTOR/FRAP1 using at 1 uM in presence of 32P-ATP by Hotspot assay relative to control.
Data set [3] has as its system L929. The experiment in a line: Cytotoxicity against mouse L929 cells assessed as induction of apoptosis at 3 to 10 uM incubated for 18 hrs by Cell Titer-Glo luminescent cell viability assay. It counts as toxicity, cell-based. The conditions noted are these: l929, 18 h, dose 3-10 µM.
Data set [4] concerns L929. The experiment in a line: Cytotoxicity against mouse L929 cells assessed as induction of apoptosis at 10 uM incubated for 18 hrs in presence of zVAD by Cell Titer-Glo luminescent cell viability assay. The conditions noted are these: l929, 18 h. It counts as toxicity, cell-based.
Data set [5] relates to MEF. Nature of the data set: Cytotoxicity against MEF cells assessed as induction of apoptosis at 3 to 10 uM incubated for 18 hrs by Cell Titer-Glo luminescent cell viability assay. Format: toxicity, cell-based. The conditions noted are these: mouse, dose 3-10 µM.
Data set [6] concerns SVEC4-10. The experiment in a line: Cytotoxicity against mouse SVEC4-10 cells assessed as induction of apoptosis at 10 uM incubated for 18 hrs in presence of zVAD by Cell Titer-Glo luminescent cell viability assay. Format: toxicity, cell-based. As to conditions: svec4-10, 18 h.
Data set [7] has as its target T1, Receptor-interacting serine/threonine-protein kinase 3 (Homo sapiens, UniProt Q9Y572). The experiment in a line: Inhibition of recombinant human RIP3 kinase activity by ADP-glo assay. For orientation: ADP-Glo first removes unused ATP, then detects ADP through luciferase.
The test system of data set [8] is SVEC4-10. The experiment in a line: Cytotoxicity against mouse SVEC4-10 cells assessed as induction of apoptosis at 3 to 10 uM incubated for 18 hrs by Cell Titer-Glo luminescent cell viability assay. The conditions noted are these: svec4-10, 18 h, dose 3-10 µM. It counts as toxicity, cell-based.
In data set [9] the test system is 3T3SA. Nature of the data set: Cytotoxicity against mouse 3T3SA cells assessed as induction of apoptosis at 3 to 10 uM incubated for 18 hrs by Cell Titer-Glo luminescent cell viability assay. It counts as toxicity, cell-based. As to conditions: dose 3-10 µM.
The subject of data set [10] is MEF. Nature of the data set: Cytotoxicity against MEF cells assessed as induction of apoptosis at 10 uM incubated for 18 hrs in presence of zVAD by Cell Titer-Glo luminescent cell viability assay. It counts as toxicity, cell-based. As to conditions: mouse.
Data set [11] concerns the target T1, Receptor-interacting serine/threonine-protein kinase 3. Nature of the data set: Inhibition of recombinant human RIP3 kinase domain (1 to 328 residues) expressed in baculovirus expression system by fluorescence polarization assay. For orientation: In fluorescence polarisation assays a small probe gives low polarisation when free and higher when bound to something large.

The target of data set [12] is T2, Serine/threonine-protein kinase TAO1 (Homo sapiens) (UniProt Q7L7X3).
T2 sequence (whole entry): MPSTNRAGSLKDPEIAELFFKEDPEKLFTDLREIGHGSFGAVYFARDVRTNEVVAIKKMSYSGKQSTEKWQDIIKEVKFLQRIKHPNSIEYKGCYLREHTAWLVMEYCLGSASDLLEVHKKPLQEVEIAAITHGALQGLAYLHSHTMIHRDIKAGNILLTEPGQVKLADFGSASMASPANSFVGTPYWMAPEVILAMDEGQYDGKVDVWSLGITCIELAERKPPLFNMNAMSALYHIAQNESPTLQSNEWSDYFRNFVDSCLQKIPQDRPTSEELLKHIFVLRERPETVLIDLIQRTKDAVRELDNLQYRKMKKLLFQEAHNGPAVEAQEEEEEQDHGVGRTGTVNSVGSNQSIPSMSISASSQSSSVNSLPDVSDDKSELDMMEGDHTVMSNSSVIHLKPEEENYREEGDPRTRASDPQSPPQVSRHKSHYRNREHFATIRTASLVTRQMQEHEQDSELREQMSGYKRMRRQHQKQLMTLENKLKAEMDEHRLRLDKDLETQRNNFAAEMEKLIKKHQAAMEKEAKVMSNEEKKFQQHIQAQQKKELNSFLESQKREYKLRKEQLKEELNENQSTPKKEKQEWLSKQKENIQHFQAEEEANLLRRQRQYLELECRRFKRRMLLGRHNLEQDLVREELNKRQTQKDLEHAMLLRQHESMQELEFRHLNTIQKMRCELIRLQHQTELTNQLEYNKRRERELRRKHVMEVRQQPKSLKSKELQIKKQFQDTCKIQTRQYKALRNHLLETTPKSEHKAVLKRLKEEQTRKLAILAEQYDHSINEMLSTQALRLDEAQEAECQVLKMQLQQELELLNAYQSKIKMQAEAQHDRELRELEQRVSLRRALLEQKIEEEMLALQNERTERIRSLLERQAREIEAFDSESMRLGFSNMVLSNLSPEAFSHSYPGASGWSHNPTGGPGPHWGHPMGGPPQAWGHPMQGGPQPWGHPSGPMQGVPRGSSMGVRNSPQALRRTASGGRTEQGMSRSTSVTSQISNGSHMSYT
Nature of the data set: Inhibition of human TAOK1 using myelin basic protein as substrate at 1 uM in presence of 32P-ATP by Hotspot assay relative to control; values are per cent of control.

Data set [13] has as its system MEF. Nature of the data set: Induction of apoptosis in […] MEF cells incubated for 18 hrs by Cell Titer-Glo luminescent cell viability assay. It counts as toxicity, cell-based. The conditions noted are these: mouse.
Data set [14] deals with SVEC4-10. The experiment in a line: Inhibition of DAI-induced necroptosis in wildtype MCMV infected mouse SVEC4-10 cells assessed as increase in cell viability at 10 uM incubated for 18 hrs in presence of zVAD by Cell Titer-Glo luminescent cell viability assay. It counts as functional, cell-based.
The subject of data set [15] is 3T3SA. The experiment in a line: Induction of apoptosis in mouse 3T3SA cells assessed as accumulation of cleaved caspase-3 by measuring percentage of cleaved caspase-3 positive cells measured after 2.5 hrs by immunoblot analysis (reference value: 4%). It counts as toxicity, cell-based.
Data set [16] has as its system 3T3SA. The experiment in a line: Induction of apoptosis in mouse 3T3SA cells assessed as increase in caspase3/7 proteolytic activity incubated for 2.5 hrs. It counts as toxicity, cell-based.
For data set [17], the system named is 3T3SA. Nature of the data set: Induction of apoptosis in mouse 3T3SA cells assessed as cell death by measuring percent of PI positive cells incubated for 8 hrs in presence of zVAD by PI staining based flow cytometric analysis (reference value: 11.4%). Format: toxicity.
Data set [18] concerns 3T3SA. The experiment in a line: Induction of apoptosis in mouse 3T3SA cells transfected with RIP1 siRNA assessed as accumulation of cleaved caspase 3 incubated for 0.5 to 1.5 hrs by immunoblot analysis. It counts as toxicity, cell-based. The conditions noted are these: time 0.5-1.5 hrs.
For data set [19], the system named is 3T3SA. Nature of the data set: Induction of apoptosis in mouse 3T3SA cells transfected with RIP1 siRNA assessed as accumulation of cleaved caspase 8 incubated for 0.5 to 1.5 hrs by immunoblot analysis. It counts as toxicity, cell-based. The conditions noted are these: time 0.5-1.5 hrs.
Data set [20] addresses Nuclear factor NF-kappa-B complex (Homo sapiens) (UniProt Q00653+P19838+Q04206). Nature of the data set: Activation of NFkappaB (unknown origin) transfected in mouse 3T3SA cells incubated for 2.5 hrs. It counts as cell-based. As to conditions: filed as activator.
The subject of data set [21] is MEF. The experiment in a line: Induction of apoptosis in TNF-/- MEF cells incubated for 18 hrs by Cell Titer-Glo luminescent cell viability assay. It counts as toxicity, cell-based. The conditions noted are these: mouse.
For data set [22], the system named is 3T3SA. Nature of the data set: Induction of apoptosis in vICA expression plasmid transfected mouse 3T3SA cells co-transfected with shRNA-resistant RIP3 mutRHIM incubated for 12 hrs by Cell Titer-Glo luminescent cell viability assay. It counts as toxicity, cell-based.
Data set [23] concerns the target Ephrin type-A receptor 6 (Homo sapiens) (UniProt Q9UF33). Nature of the data set: Inhibition of human EPHA6 using poly[Glu:Tyr] (4:1) as substrate at 1 uM in presence of 32P-ATP by Hotspot assay relative to control; values are per cent of control.

The structures appear in SMILES notation. Active and inactive are the calls of the source. The calls are words filed in the database; no cut-off is given here.

T1 sequence (Q9Y572 whole entry): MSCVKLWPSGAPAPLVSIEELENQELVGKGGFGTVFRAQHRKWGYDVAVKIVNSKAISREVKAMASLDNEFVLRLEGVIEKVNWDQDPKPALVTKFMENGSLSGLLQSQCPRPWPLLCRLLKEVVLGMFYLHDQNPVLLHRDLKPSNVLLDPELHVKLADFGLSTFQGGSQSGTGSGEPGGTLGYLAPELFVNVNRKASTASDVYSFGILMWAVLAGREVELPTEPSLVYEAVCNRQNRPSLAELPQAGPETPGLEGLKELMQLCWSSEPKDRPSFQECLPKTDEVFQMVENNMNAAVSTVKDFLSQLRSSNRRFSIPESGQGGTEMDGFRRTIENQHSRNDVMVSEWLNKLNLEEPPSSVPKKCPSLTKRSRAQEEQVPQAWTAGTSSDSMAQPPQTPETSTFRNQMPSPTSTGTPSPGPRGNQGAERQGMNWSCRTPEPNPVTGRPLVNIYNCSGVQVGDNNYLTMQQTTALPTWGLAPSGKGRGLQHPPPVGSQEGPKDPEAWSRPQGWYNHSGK
Ephrin type-A receptor 6 (Homo sapiens), sequence (Q9UF33 whole entry): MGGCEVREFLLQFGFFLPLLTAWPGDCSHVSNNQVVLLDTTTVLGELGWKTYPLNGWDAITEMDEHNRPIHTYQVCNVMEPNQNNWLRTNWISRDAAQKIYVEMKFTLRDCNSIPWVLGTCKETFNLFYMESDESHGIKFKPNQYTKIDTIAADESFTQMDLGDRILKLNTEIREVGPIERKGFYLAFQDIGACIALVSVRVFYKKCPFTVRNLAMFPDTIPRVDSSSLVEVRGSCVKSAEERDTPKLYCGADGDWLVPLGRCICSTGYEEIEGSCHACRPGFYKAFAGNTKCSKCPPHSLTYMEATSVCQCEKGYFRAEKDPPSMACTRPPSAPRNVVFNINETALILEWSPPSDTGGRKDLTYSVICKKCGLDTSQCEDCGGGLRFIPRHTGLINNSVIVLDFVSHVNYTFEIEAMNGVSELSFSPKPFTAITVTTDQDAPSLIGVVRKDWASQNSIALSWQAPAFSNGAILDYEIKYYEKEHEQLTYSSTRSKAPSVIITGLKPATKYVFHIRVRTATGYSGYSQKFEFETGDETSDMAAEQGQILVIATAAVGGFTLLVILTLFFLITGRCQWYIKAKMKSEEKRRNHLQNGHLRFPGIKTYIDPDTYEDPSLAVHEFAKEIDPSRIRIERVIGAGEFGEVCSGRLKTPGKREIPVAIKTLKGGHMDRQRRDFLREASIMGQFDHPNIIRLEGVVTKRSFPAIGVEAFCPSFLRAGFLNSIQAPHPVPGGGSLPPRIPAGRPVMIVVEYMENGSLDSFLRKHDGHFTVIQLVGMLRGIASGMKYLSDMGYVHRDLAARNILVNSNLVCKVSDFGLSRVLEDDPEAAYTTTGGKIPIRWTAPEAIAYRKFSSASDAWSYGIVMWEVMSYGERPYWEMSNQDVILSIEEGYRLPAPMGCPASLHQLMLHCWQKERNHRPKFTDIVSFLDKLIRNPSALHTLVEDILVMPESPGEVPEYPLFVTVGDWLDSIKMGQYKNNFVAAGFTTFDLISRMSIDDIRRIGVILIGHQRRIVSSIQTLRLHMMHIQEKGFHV
Nuclear factor NF-kappa-B complex (Homo sapiens), sequence (P19838 whole entry, looked up): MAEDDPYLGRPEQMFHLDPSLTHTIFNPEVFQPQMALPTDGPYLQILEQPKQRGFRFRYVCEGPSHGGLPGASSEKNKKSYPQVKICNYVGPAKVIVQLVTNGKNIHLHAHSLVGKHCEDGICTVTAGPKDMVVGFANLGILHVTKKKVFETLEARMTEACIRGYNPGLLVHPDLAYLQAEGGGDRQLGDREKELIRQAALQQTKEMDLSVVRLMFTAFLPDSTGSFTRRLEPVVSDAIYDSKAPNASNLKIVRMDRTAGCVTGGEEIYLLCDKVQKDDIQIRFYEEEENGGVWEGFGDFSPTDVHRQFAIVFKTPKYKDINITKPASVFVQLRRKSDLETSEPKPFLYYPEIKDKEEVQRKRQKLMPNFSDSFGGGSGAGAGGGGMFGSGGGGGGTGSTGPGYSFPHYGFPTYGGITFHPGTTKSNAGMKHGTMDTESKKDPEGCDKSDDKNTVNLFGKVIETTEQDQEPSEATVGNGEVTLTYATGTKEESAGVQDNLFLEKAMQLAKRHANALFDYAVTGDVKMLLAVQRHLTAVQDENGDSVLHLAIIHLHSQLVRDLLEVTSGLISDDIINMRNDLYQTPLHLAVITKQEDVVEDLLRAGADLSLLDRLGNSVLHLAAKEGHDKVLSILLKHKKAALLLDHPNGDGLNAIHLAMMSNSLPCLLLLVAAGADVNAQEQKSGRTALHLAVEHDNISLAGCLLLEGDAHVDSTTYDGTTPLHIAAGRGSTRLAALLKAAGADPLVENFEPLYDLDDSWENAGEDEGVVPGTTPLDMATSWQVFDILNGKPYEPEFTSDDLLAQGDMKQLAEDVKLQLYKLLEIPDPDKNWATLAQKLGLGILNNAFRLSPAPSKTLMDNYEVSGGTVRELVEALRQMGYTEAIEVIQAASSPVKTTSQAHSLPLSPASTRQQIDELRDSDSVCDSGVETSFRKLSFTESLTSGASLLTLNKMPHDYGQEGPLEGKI
Nuclear factor NF-kappa-B complex (Homo sapiens), sequence (Q00653 whole entry, looked up): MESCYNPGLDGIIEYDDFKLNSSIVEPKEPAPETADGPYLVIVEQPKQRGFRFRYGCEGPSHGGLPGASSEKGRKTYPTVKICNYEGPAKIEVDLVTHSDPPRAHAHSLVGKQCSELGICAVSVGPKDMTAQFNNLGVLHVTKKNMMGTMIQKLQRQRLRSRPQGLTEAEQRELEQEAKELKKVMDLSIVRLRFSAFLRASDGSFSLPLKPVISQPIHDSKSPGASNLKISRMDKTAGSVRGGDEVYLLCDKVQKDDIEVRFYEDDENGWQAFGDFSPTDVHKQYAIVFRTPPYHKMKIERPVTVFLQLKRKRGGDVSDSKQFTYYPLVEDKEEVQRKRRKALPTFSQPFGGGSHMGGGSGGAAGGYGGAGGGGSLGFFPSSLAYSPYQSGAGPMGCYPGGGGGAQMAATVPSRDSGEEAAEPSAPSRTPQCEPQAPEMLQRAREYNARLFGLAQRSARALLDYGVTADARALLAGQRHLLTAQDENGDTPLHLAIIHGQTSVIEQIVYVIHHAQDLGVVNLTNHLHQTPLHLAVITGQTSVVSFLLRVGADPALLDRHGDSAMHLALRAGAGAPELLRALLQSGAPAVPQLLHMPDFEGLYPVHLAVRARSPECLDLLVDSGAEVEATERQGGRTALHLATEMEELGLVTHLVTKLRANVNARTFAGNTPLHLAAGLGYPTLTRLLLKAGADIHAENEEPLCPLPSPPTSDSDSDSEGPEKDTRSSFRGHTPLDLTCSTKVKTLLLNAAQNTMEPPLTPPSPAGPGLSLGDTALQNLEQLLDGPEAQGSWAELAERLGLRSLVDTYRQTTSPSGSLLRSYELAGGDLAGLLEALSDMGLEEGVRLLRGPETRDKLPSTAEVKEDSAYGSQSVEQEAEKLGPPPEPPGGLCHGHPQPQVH
Nuclear factor NF-kappa-B complex (Homo sapiens), sequence (Q04206 whole entry, looked up): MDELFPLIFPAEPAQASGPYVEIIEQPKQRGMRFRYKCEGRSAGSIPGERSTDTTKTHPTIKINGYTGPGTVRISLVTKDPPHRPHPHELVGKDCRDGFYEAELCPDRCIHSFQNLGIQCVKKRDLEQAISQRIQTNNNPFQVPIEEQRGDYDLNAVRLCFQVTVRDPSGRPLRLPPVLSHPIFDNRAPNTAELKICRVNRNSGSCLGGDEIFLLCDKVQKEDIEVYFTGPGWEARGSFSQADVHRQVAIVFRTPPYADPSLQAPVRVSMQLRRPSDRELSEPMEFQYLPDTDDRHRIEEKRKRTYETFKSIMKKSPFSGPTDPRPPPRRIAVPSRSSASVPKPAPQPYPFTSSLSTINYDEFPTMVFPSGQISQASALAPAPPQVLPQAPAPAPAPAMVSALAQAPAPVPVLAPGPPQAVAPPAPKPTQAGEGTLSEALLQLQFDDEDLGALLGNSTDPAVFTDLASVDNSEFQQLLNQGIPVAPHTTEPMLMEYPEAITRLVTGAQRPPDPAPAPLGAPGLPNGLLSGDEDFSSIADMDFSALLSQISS

One may read the inhibition as the share of the control response that was lost under treatment. By IC50 is commonly meant the concentration that gives 50% inhibition. In general, residual activity refers to the activity still measured, relative to the control. For the compound `Cc1cc(-c2cnc(N)c3c(-c4ccc5scnc5c4)csc23)n(C)n1`, the Activity result in data set [1] was “Non-Toxic”; in data set [3] it was “Toxic”; in data set [4] it was “Non-Toxic”; in data set [5], “Toxic”; in data set [6], “Non-Toxic”; in data set [8], “Toxic”. The values for the Activity entry in [9] and in data set [10] were “Toxic” and “Non-Toxic”, respectively. For the same compound, the inhibition in data set [2] amounted to 60.8%. Further, the IC50 in data set [7] came out at 6.5 nM; in data set [11], 8.6 nM. For the same compound, the residual activity in data set [12] amounted to 92.6%.

For `CC(C)S(=O)(=O)c1ccc2nccc(Nc3ccc4scnc4c3)c2c1`, the Activity entry is recorded as “Non-Toxic” in data set [13]; “Non-Toxic” in data set [1]; 29% in data set [15]; “Toxic” in data set [16]; 11% in data set [17]; “Non-Toxic” in data set [18]. Besides, the Activity entry in data set [3] was “Toxic”; in data set [4], “Non-Toxic”; in [5], “Toxic”; in data set [19], “Non-Toxic”; in data set [6] it was “Non-Toxic”; in data set [21], “Toxic”. The Activity result was “Toxic” in [8], “Toxic” in [9], “Non-Toxic” in [10] and “Non-Toxic” in data set [22]. Also, the inhibition entry in [14] was “Active”. The result in data set [20] was Active. For the same compound, the residual activity in data set [12] amounted to 93.8%.

Regarding `CNC(=O)c1ccc2c(c1)ncn2-c1ccc(CC(=O)OC(C)(C)C)cc1`, the residual activity was 88.9% in data set [23] and 98.8% in [12]. The IC50 in [7] was 0.3 nM; in data set [11], 0.9 nM.
